Test results: patent US20080051413A1, “Nitrophenylpiperazine derivative of xanthine which relaxes tracheal airway and increases respiratory performance” (KAOHSIUNG MEDICAL UNIVERSITY, priority 2006, published 2008)

Assays:
[1] = test system: guinea pig tracheal smooth muscle cells; test: Measurement of cAMP in TSMCs; type: cell-based; details: for cAMP accumulation versus vehicle (FIG. 6) / cAMP level: 100 _M, 20 min; for cAMP level: basal/vehicle 62.6±6.4
Experimental: (§1) Cell Culture of Tracheal Smooth Muscle: Guinea pigs (350-450 g) were injected i.p. with a lethal dose of pentobarbital. The tracheas were excised and cut longitudinally through the cartilage. Using a dissecting microscope, TSM strips were dissected from the surrounding parentchyma. The epithelium was removed from the luminal surface, and bands of TSM were gently separated from the underlying connective tissue. Then TSM strips were chopped into small sections (1 mm^3) and incubated in Hanks' balanced salt solution (138 mM NaCl, 4 mM NaHCO3, 5 mM KCl, 0.3 mM KH2PO4, 0.3 mM Na2HPO4, and 1.0 mM glucose) with 0.05% elastase type IV and 0.2% collagenase type IV (Invitrogen, Carlsbad, Calif.) for 30 min at 37_ with gentle shaking. The solution of dissociated smooth muscle cells was centrifuged (6 min at 500 g), and the pellet was resuspended in 1:1 Dulbecco's modified Eagle's medium/Ham's F-12 medium supplemented with 10% fetal bovine serum, 0.244% NaHCO3, and 1% penicillin/streptomycin. Cells were cultured in 25-cm^2 flasks at 37_ in humidified air containing 5% CO2. Confluent cells were detached with 0.25% trypsin-0.02% EDTA at 37_and then subcultured to establish secondary cultures. Cultures were maintained for no more than four passages. They were identified as smooth muscle cells by the typical hill-and-valley appearance, and cellular homogeneity was further confirmed by the presence of smooth muscle specific _-myosin and _-actin immunoreactivity. Indirect immunofluorescence staining for a variety of antigens was carried out by first plating the cells on chamber slides, fixing the cells in 3.7% formaldehyde-phosphate-buffered saline for 10 min, and permeabilizing the cells with phosphate-buffered saline and 0.1% Triton X-100. Cells were then stained with either a mouse monoclonal antibody directed against the amino-terminal 10 amino acids of _-smooth muscle actin or _-myosin (Roche Diagnostics, Indianapolis, Ind.). All cells were stained with fluorescein-labeled goat anti-mouse IgG antibody (Roche Diagnostics).
(§2) Measurement of cAMP and cGMP: Intracellular concentrations of cAMP and cGMP in TSMCs were measured as in our previous reports (Wu B N, Lin R J, Lin C Y, Shen K P, Chiang L C, and Chen I J (2001) A xanthine-based KMUP-1 with cyclic GMP enhancing and K^+ channels opening activities in rat aortic smooth muscle. Br J Pharmacol 134:265-274; Lin R J, Wu B N, Lo Y C, Shen K P, Lin Y T, Huang C H, and Chen I J (2002) KMUP-1 relaxes rabbit corpus cavernosum smooth muscle in vitro and in vivo: involvement of cyclic GMP and K(+) channels, Br J Pharmacol 135:1159-1166). In brief, cells were finally grown in 24-well plates (10^5 cells/well). At confluence, monolayer cells were washed with phosphate-buffered saline and then incubated with KMUP-3 (0.01-100 _M) for 20 min at 37_ in medium. […] The reaction was terminated by replacement of medium with 1 ml of ice-cold 1 N hydrochloric acid. Cells suspensions were sonicated and then centrifuged at 2500 g for 15 min at 4_. Then, the supernatants were lyophilized and the cAMP and cGMP of each sample were determined using commercially available radioimmunoassay kits (GE Healthcare, Little Chalfont, Buckinghamshire, UK).

[2] = test system: PDE4 purified from human U-937 pronocytic cells; test: Phosphodiesterase activity, PDE4; type: biochemical; details: 10 _M compound, n = 3
Experimental: Phosphodiesterase Activity: PDE activity was determined by the method of Nicholson et al. (Nicholson C D, Challiss R A, and Shahid M (1991) Differential modulation of tissue function and therapeutic potential of selective inhibitors of cyclic nucleotide phosphodiesterase isonzymes. Trends Pharmaclo Sci 12:19-27). PDE3 and PDE5 purified from human platelets and PDE4 purified from human U-937 pronocytic cells were used. Test compound (10 _M) or vehicle was incubated with 0.2 _g of enzyme and 1 _M cAMP containing 0.01 _M [^3H]cAMP in Tris buffer, pH 7.5, for 20 min at 25_. The reaction was terminated by boiling for 2 min, and the resulting […] was converted to adenosine by the addition of 10 mg/ml snake venom nucleotidase, which is followed by a further incubation at 37_for 10 min. Unhydrolyzed cAMP was bound to AG1-X2 resin, and the remaining [^3H]adenosine in the aqueous phase was quantitated by scintillation counting.

[3] = test system: guinea pig tracheal smooth muscle cells; test: Measurement of cGMP in TSMCs; type: cell-based; details: for amounts of cGMP versus vehicle (FIG. 6): 100 _M, 20 min
Experimental: as §1, §2

[4] = test system: carbachol (1 _M)-precontracted guinea pig trachea; test: Isolated tracheal preparation, measurement of tension; details: 100 _M, carbachol (1 _M)-precontracted, EP+
Experimental: Isolated Tracheal preparation and Measurement of Tension: Guinea pigs (350-450 g) were anesthetized with pentobarbital (70 mg/kg) i.p. and killed by a sharp blow on the neck, followed by cervical dislocation. The trachea was excised, cleaned of adhering fat and connective tissue, cut transversely into four to five rings, and then opened by cutting longitudinally through the cartilage rings diametrically opposite the tracheal smooth muscle (Hwang T L, Wu C C, and Teng C M (1999) YC-1 potentiates nitric oxide-induced relaxation in guinea-pig trachea. Br J Pharmacol 128:577-584). Then trachea rings were suspended in a 10-ml organ bath containing Krebs' solution (118 mM NaCl, 25 mM NaHCO3, 4.7 mM KCl, 1.2 mM KH2PO4, 1.2 mM MgSO4, 11 mM glucose, and 2.5 mM CaCl2, pH 7.3-7.4) maintained at 37_and aerated with 95% O2 and 5% CO2. Each tracheal tissue sample was subjected to 2 g of initial basal tension. All experiments were carried out in the presence of indomethacin (3 _M) and propranolol (1 _M) to prevent the formation of prostanoids and to inhibit _-adrenergic responses, respectively. Isometric tension was recorded with a force displacement transducer (model FT03; Grass Instruments, Quincy, M A). Before the start of measurements, all preparations were allowed to equilibrate with frequent washing for 1 h. They were first contracted with carbachol (1 _M) to determine the contractility of preparations. This was also done at the end of each experiment. The preparations were then washed and allowed to equilibrate with Krebs' solution for 50 min before being contracted a second time with carbachol (1 _M). When stable constriction to carbachol was reached, concentration responses of KMUP-3 (10, 30, and 100 _M) were obtained. Data were expressed as percentages of the maximum contractile response to carbachol (1 _M).
In experiments to examine the role of epithelium in tracheal relaxation, the epithelial cells were removed mechanically by rubbing the internal surface of trachea with a fine silver wire, and the removal of the epithelial layer was confirmed by histological examination as previously described (Wu et al., 2004).
To examine the possible mechanism of tracheal relaxant effects of KMUP-3, the tracheal strips were pretreated with a K^+ channel blocker, tetraethylammonium (TEA; 10 mM); a KATP channel blocker, glibenclamide (1-M); voltage-dependent K^+ channel blocker, 4-aminopyridine (4-AP, 100 _M); Ca^2+-dependent K^+ channel blockers, apamin (1 _M) and charybdotoxin (ChTX; 0.1 _M); a sGC inhibitor, 1H-[1,2,4]oxadiazolo[4,3-a]quinoxalin-1-one (ODQ; 1 _M); an NOS inhibitor, N—nitro-L-arginine methyl ester (L-NAME; 100 _M); and an adenylate cyclase (AC) inhibitor, SQ 22536 (100 _M) for 30 min prior to the addition of KMUP-3 (10, 30, and 100 _M). In the other experiments, TSMs were precontracted with 60 mM KCl to examine the relaxation achieved by KMUP-3. The KCl solution was prepared by substituting NaCl with KCl (60 mM) in an equimolar amount.

[5] = test system: cultured guinea pig tracheal smooth muscle cells; test: Expression of PKA and PKG (Western blot); type: cell-based; details: 1 _M, 30 min
Experimental: as §1
Expression of PKA and PKG: The expression of PKA and PKG was determined by Western blot as previously described by Wu et al. and Murthy et al. (Wu B N, Lin R J, Lo Y C, Shen K P, Wang C C, Lin Y T, and Chen I J (2004) KMUP-1, a xanthine derivatives, induces relaxation of guinea-pig isolated trachea: the role of the epithelium, cyclic nucleotides and K^+ channels. Br J Pharmacol 142:1105-1114; Murthy K S, Zhou H, and Makhlouf G M (2002) PKA-dependent activation of PDE3A and PDE4 and inhibition of adenylyl cyclase V/VI in smooth muscle. Am J Physiol 282:C508-C517). Guinea pig TSMCs were incubated with KMUP-3 for 30 min. Each of the cell lysates, each containing 1 _g of cellular protein, was electrophoresed in 7.5% SDS-polyacrylamide gel electrophoresis and then transferred to polyvinylidene diflouride membrane (Millipore Corporation, Billerica, Mass.). The membrane was stained with Ponceau S to verify the integrity of the transferred proteins and to monitor the unbiased transfer of all protein samples. The membrane was then washed with 25 ml of TBS (100 mM NaCl, 0.1% and 10 mM Tris-HCl, pH 7.5) for 5 min at room temperature and incubated in 25 ml of blocking buffer (TBS plus 0.1% Tween 20 and 5% nonfat milk) overnight at 4_. In the measurement of protein, the membrane was incubated with appropriate PKARI or PKA1—1— primary antibody (diluted 1:250) in 2 ml of blocking buffer for 1 h at room temperature, washed three times for 5 min each with 15 ml of Tris-buffered saline/Tween 20 (TBS plus 0.1% Tween 20), incubated with horseradish peroxidase-conjugated secondary antibody (1:10,000) in 15 ml of blocking buffer with gentle agitation for 1 h at room temperature, and finally washed three times for 5 min each time with 15 ml of Tris-buffered saline/Tween 20. The membrane was then subjected to enhanced chemiluminescence (GE Healthcare) for the detection of the specific antigen.

SMILES | cAMP accumulation versus vehicle (FIG. 6) [1] | amounts of cGMP versus vehicle (FIG. 6) [3] | relaxation in epithelium-intact trachea (FIG. 3(B)) [4] | further results
Cn1c(=O)c2[nH]cnc2n(C)c1=O [theophylline, reference compound] | significant elevations | significantly enhances | cause relaxations | PDE4 Inhibition [2]: 7.9±1.2%
O=c1onc2cnc3ccccc3n12 [ODQ, 1H-[1,2,4]oxadiazolo[4,3-a]quinoxalin-1-one, reference compound] |  |  |  | Cyclic GMP level ([3]; 10 _M (ODQ alone), vehicle 1.18 ± 0.06): 1.12 ± 0.03 pmol/mg protein
Nc1nc2c(nc(Br)n2[C@@H]2O[C@@H]3COP(=O)(O)O[C@H]3[C@H]2O)c(=O)[nH]1 [8-Br-cGMP, reference compound] |  |  |  | expression of PKA1—1— (FIG. 7(B)) [5]: increased the expression of PKA1—1—
CC1(C)Oc2ccc(C#N)cc2[C@@H](N2CCCC2=O)[C@@H]1O [levcromakalim, reference compound] |  |  | displayed relaxation effects | 
Nc1ncnc2c1ncn2C1CCCO1 (stereo not drawn) [SQ 22536, reference compound] |  |  |  | cAMP level [1]: 74.32 ± 7.56 pmol/mg protein
Nc1ncnc2c1nc(Br)n2[C@@H]1O[C@@H]2COP(=O)(O)O[C@H]2[C@H]1O [8-Br-cAMP, reference compound] |  |  |  | expression of immunoreactive PKARI protein (FIG. 7(A)) [5]: increased the expression of PKARI
CCCOc1ccccc1-c1nc2nn[nH]c2c(=O)[nH]1 [zaprinast, reference compound] | not so | significantly enhances | cause relaxations | 
CC(C)Cn1c(=O)n(C)c(=O)c2[nH]cnc21 [IBMX, 3-isobutyl-1-methylxanthine, reference compound] |  |  | cause relaxations | 
COc1ccc(C2CNC(=O)C2)cc1OC1CCCC1 (stereo not drawn) [rolipram, reference compound] | significant elevations | not observed | cause relaxations | 
Cc1[nH]c(=O)c(C#N)cc1-c1ccncc1 [milrinone, reference compound] | significant elevations | not observed | cause relaxations | 
C=C[C@@]1(C)CC(=O)[C@]2(O)[C@@]3(C)[C@@H](O)CCC(C)(C)[C@@H]3[C@H](O)[C@H](OC(C)=O)[C@@]2(C)O1 [Forskolin, forskolin, reference compound] |  |  |  | cAMP level in presence of SQ 22536 ([1]; 100 _M compound plus SQ 22536 (100 _M) pretreatment): 94.33 ± 3.42 pmol/mg protein; cAMP level [1]: 119.15 ± 5.11 pmol/mg protein
